Results on 16 compounds are retold here after patent US11529343B2, “Compositions and methods for identifying and treating dystonia disorders” (DUKE UNIVERSITY, priority 2015, dated 2022).

“Also recorded” adds a separate entry of the source. Where a name gives a salt, the structure may show the parent alone.

The subject of data set [1] is delta-E Torsin1a localization. Nature of the data set: Delta-E Torsin1a mislocalization assay (% cells with EGFP puncta, high-content imaging). Format: cell-based, human. To be noted: for effect on delta-E Torsin1a localization (cells with puncta), in words: dose response; for % pathology CC-v2 (dose response Curve Class): curve class per Inglese et al. 2006. On the procedure:
To limit variation in expression levels associated with random integration or transient expression, single copies of either WT or delta-E human TOR1A cDNAs with N-terminal EGFP fusions were inserted at the FRT site in Flp-In™ T-Rex™ 293 cells (Thermo Fisher Scientific #R780-07) via flippase recombinase-mediated cassette exchange according to the manufacturer's recommended protocols.
The cells were maintained at 37° C./5% CO2. All experiments were performed on cells with fewer than 5 passages.
Torsin1a expression was also controlled by tetracycline induction to avoid selective pressure modifying the cellular phenotypes. […] The mutant phenotype was measured as the percentage of cells with one or more EGFP puncta using automated high-content imaging analysis (see infra).
The image analysis algorithm was developed using the Cellomics ArrayScan V CompartmentAnalysisV2 protocol. Hoechst's nuclear staining (Ch1: excitation 350 nm; emission 461 nm) was used for focusing and for cell identification by nuclear size, shape, and intensity. […] Detected cells were gated according to nuclear area, length-to-width ratio, and perimeter-to-area ratio. For the purpose of analysis, cell bodies were defined by a radius of 10 μm from the outer edge of the defined nucleus. Overlapping cells were automatically segmented according to the Cellomics ArrayScanV CompartmentAnalysisV2 object segmentation feature. EGFP fluorescence (Ch2: excitation 488 nm; emission 509 nm) was used for puncta detection. […] Torsin a puncta were identified using the spot detection feature of the Compartmental AnalysisV2 protocol. The percentage of cells containing one or more puncta was used as the primary metric in this assay.
(§1) In order to test this model directly, the delta-E Torsin1a cell line was treated with compounds targeting the eIF2-alpha signaling pathway (FIG. 2). […] The following day, serial drug dilutions were prepared at 2× final concentration in assay media containing 10 μg/mL tetracycline and 30 μL of the drug/tetracycline mixture was added to the appropriate wells, while control wells received 30 μL of assay media alone or assay media+10 μg/mL tetracycline (final tetracycline concentration for all wells except negative controls: 5 μg/mL). Cells were then incubated at 37° C./5% CO^2 for 48 hours and fixed, permeabilized, Hoechst stained, and imaged as described above. The range of the Torsin1a localization effect was normalized to the percentage of cells with puncta in vehicle-treated delta-E cell line as the maximum and that in WT cell line as the minimum (FIG. 2, panels c-h). Cell count and EGFP-Torsin1a expression were normalized to their respective values in the vehicle-treated delta-E cell line as the maximum. All dose response data are the average of 4 independent experiments per dose. Untreated control data used for normalization are the average of 24 independent experiments.

The test system of data set [2] is Flp-In T-REx 293 cells inducibly expressing delta-E Torsin1a. The data set can be described thus: Cytotoxicity (cell count, cellular morphology) in the Torsin1a assay cell line. Format: cell-based, human. To be noted: for Cytotox CC-v2 (dose response Curve Class): curve class per Inglese et al. 2006. On the procedure:
as §1
Efficacy is calculated as the magnitude of the pathology correction relative to the mutant Torsin1a pathology. For example an efficacy=−100% would be equivalent to the WT TorsinA phenotype, and 0% would be equivalent to the Mutant TorsinA phenotype. CCv2 refers to the dose response Curve Class annotation, and AC refers to Active Concentration.

In another data set the test system is luciferase secretion. The data set can be described thus: C.Luc. Secretion Assay. Format: cell-based. To be noted: for effect on secretory deficits, in words: orthogonal assays. On the procedure:
We tested each shRNA for its ability to rescue a previously described defect in luciferase secretion. Chen, P. et al. (2010) Hum. Mol. Genet. 19, 3502-15; Cao, S. et al. (2010) Dis. Model Mech. 3, 386-96; Barrows, N. J., et al., (2010) J. Biomol. Screen. 15, 735-47.) DYT1 patient data were obtained from 4 independent patient-derived lines and WT data (black bar) from 3 normal healthy control lines. Each line was tested in 5 independent experiments that included 4 technical replicates each (with the exception of SCD data from 3 independent experiments).
(Cao, S. et al. (2010) Dis. Model. Mech. 3, 386-96.) Subsequent testing of additional HIV protease inhibitors supported the activity of this class of compounds and generated favorable structure-activity relationship (SAR) data from which to design improved compounds (Tables 5 and 6). The results with a subset of compounds were also observed in a Luciferase secretion assay (Tables 5 and 6).

The subject of data set [3] is homozygous DYT1 knock-in mice. Nature of the data set: Perinatal survival of DYT1 knock-in mice after in utero exposure. Format: in vivo. An excerpt: Pairs of heterozygous delta-E Torsin1a knock-in breeders (courtesy of Dr. W. Dauer, University of Michigan) were randomly assigned to vehicle or salubrinal treatment groups. Starting 10 days after breeding cages were established, each female mouse was given a daily subcutaneous injection of vehicle or salubrinal at approximately 6 p.m. Cages were checked for new pups three times per day: morning (˜8 a.m.), early afternoon (˜2 p.m.), and during injections (˜6 p.m.). In order to minimize stress and the possibility of litter abandonment, mice with newborn pups were not given injections. Newborn pups were identified by marking limbs with a permanent laboratory marker, and tail samples were taken for genotyping at P0. At approximately P0.5, cages were checked again, and the status of each pup was recorded. If pups were first observed at the 8 am check, the 2 pm check was considered P0.5. If pups were first observed at the 2 pm or 6 pm checks, an additional check was performed at approximately midnight, and considered P0.5. Mortality was also tracked the following day, after which time identifying marks were predominately washed off or obscured by fur. Approximately 8 days after birth all remaining pups were sacrificed, and 10 days after birth daily injections resumed for the subsequent litter. All genotyping and, whenever possible, all pup identification and mortality checks were performed blinded to treatment group.
Salubrinal (R&D Systems #2347) stocks were prepared at 26 mM (10× final concentration) in DMSO and stored in single-use aliquots at −80° C. Each day immediately before injections, a single salubrinal aliquot was thawed to room temperature and diluted 1:10 in injection vehicle (final vehicle composition: 1×PBS/10% DMSO/0.1% BSA). Empty injection vehicle was stored at room temperature in single-use aliquots. Mice were given a single subcutaneous injection of 3.3 mg/kg salubrinal (approximately 80 μL for a 30 g mouse) or an equivalent volume of empty injection vehicle. […]

Where [4] appears, read: delta-E Torsin1a assay cell line.

Turning to `COC(=O)N[C@H](C(=O)N[C@@H](Cc1ccccc1)[C@@H](O)CN(Cc1ccc(-c2ccccn2)cc1)NC(=O)[C@@H](NC(=O)OC)C(C)(C)C)C(C)(C)C` [Atazanavir], in data set [1] (setting [4]), the “ΔE TorsinA Mislocalization Assay Localization EC50” value is listed as “No Activity”. Moreover, the “Cytotox CC-v2 (dose response Curve Class)” value (shortened to “Cytotox CC-v2”) in data set [2] was 4.
With `Cc1c(O)cccc1C(=O)N[C@@H](CSc1ccccc1)[C@H](O)CN1C[C@H]2CCCC[C@H]2C[C@H]1C(=O)NC(C)(C)C` [Viracept], in data set [2], the “Cytotox Efficacy” value is on record as −106.32%, the “Cytotox Max Resp” value is reported as −97.72% and the “Cytotox CC-v2” value is reported as −1.1.
Turning to `C[C@H](NC(=O)Cc1cc(F)cc(F)c1)C(=O)N[C@H](C(=O)OC(C)(C)C)c1ccccc1` [DAPT], the “effect on delta-E Torsin1a localization (cells with puncta), in words” value (shortened to “effect on delta-E Torsin1a localization”) in data set [1] (delta-E cell line) is “no effect”.
Consider `Cc1c(O)cccc1C(=O)N[C@@H](CSc1ccccc1)[C@H](O)CN1C[C@H]2CCCC[C@H]2C[C@H]1C(=O)NC(C)(C)C` [Nelfinavir], for which the Emax in data set [1] (Homo sapiens, delta-E Torsin1a assay cell line, read-out: ΔE TorsinA Mislocalization Assay Localization Max Efficacy) turned out to be 80%. Also, the “effect on delta-E Torsin1a localization” value in data set [1] (delta-E cell line) is on record as “corrected TorsinA localization in a dose-dependent fashion”.
With `CC(C)(C)NC(=O)[C@@H]1CN(Cc2cccnc2)CCN1C[C@@H](O)C[C@@H](Cc1ccccc1)C(=O)N[C@H]1c2ccccc2C[C@H]1O` [Indinavir], the “effect on delta-E Torsin1a localization” value in data set [1] (delta-E cell line) was “corrected TorsinA localization in a dose-dependent fashion”.
As to `CC(C)(C)NC(=O)[C@@H]1C[C@@H]2CCCC[C@@H]2CN1C[C@@H](O)[C@H](Cc1ccccc1)NC(=O)[C@H](CC(N)=O)NC(=O)c1ccc2ccccc2n1` [Saquinavir], the “effect on secretory deficits, in words” value in the data set with luciferase secretion is “corrected secretory deficits”. Moreover, the “effect on delta-E Torsin1a localization” value in data set [1] (delta-E cell line) is “corrected TorsinA localization in a dose-dependent fashion”.
Turning to `CS(=O)(=O)O.Cc1c(O)cccc1C(=O)N[C@@H](CSc1ccccc1)[C@H](O)CN1C[C@H]2CCCC[C@H]2C[C@H]1C(=O)NC(C)(C)C.O` [Nelfinavir mesylae hydrate], the “% pathology CC-v2 (dose response Curve Class)” value in data set [1] is −1.1. Also, in data set [2], the “Cytotox Efficacy” value is reported as −98.05%, the “Cytotox Max Resp” value is −95.64% and the “Cytotox CC-v2” value is recorded as −1.1.
As to `CC(C)CN(C[C@@H](O)[C@H](Cc1ccccc1)NC(=O)O[C@H]1CO[C@H]2OCC[C@H]21)S(=O)(=O)c1ccc(N)cc1` [Darunavir], in the data set with luciferase secretion, the “C.Luc. Secretion Assay Secretion EC50” value is on record as “No Activity”. The “ΔE TorsinA Mislocalization Assay Localization EC50” value in data set [1] (setting [4]) is “No Activity”.
In the case of `CC(C)CN(C[C@@H](O)[C@H](Cc1ccccc1)NC(=O)O[C@H]1CCOC1)S(=O)(=O)c1ccc(N)cc1` [Amprenavir], in data set [1] (setting [4]), the “ΔE TorsinA Mislocalization Assay Localization EC50” value is “No Activity”. For the same compound, the “Cytotox CC-v2” value in data set [2] turned out to be 4.
Take `N=C(N)N/N=C/c1c(Cl)cccc1Cl` [guanabenz]: in data set [1] (delta-E cell line), the “effect on delta-E Torsin1a localization” value is “no effect”.
On to `O=C(/C=C/c1ccccc1)NC(NC(=S)Nc1cccc2cccnc12)C(Cl)(Cl)Cl` (stereo not shown) [Salubrinal], for which, in data set [1] (delta-E cell line), the “steady-state EGFP-Torsin1a levels, in words” value is listed as “without modifying steady-state EGFP-Torsin1a levels” and the “effect on delta-E Torsin1a localization” value was “robust dose-dependent normalization”. The “perinatal survival / mortality of delta-E/delta-E pups” value in data set [3] (3.3 mg/kg subcutaneous daily to pregnant dams, about embryonic day 10 through delivery, versus vehicle) is “dramatically reduced the mortality; also recorded: improves perinatal survival”. Moreover, the “mortality of wild-type and heterozygous pups” value in data set [3] (3.3 mg/kg subcutaneous daily to pregnant dams, versus vehicle) is on record as “no mortality differences”. In addition, the “homozygous delta-E Torsin1a pups surviving through the second postnatal day” value in data set [3] (no postnatal treatment, no vehicle-treated homozygous pup survived the first postnatal day) is given as “two”.
As for `CC(C)(C)NC(=O)[C@@H]1CN(Cc2cccnc2)CCN1C[C@@H](O)C[C@@H](Cc1ccccc1)C(=O)N[C@H]1c2ccccc2C[C@H]1O` [Indinavir sulfate], in data set [2], the “Cytotox Efficacy” value is recorded as −80.64%, the “Cytotox Max Resp” value is listed as −67.80% and the “Cytotox CC-v2” value is listed as −3.
On to `CCN(CC)CCC(=O)N1N=C(c2c(-c3ccccc3)c3cc(Br)ccc3[nH]c2=O)CC1c1ccc(Br)cc1` (stereo not shown) [CCT020312], for which the “effect on delta-E Torsin1a localization” value in data set [1] (delta-E cell line) is “dose-dependent reduction in the number of cells with Torsin1a inclusions”.
Turning to `CC(C)c1nc(CN(C)C(=O)N[C@H](C(=O)N[C@@H](Cc2ccccc2)C[C@H](O)[C@H](Cc2ccccc2)NC(=O)OCc2cncs2)C(C)C)cs1` [Ritonavir], in the data set on luciferase secretion, the “effect on secretory deficits, in words” value is reported as “corrected secretory deficits”. Moreover, the “effect on delta-E Torsin1a localization” value in data set [1] (delta-E cell line) is listed as “corrected TorsinA localization in a dose-dependent fashion; also recorded: restored”. The “Cytotox CC-v2” value in data set [2] was determined as 4.
Take `CCCC(CCC)C(=O)O` [valproic acid]: in data set [1] (delta-E cell line), the “effect on delta-E Torsin1a localization” value was “no effect”.
As for `Cc1cccc(C)c1OCC(=O)NC(CCC(Cc1ccccc1)NC(=O)C(C(C)C)N1CCCNC1=O)Cc1ccccc1` (stereo not shown) [Des-hydroxy Lopinavir], in data set [1], the “% pathology CC-v2 (dose response Curve Class)” value was −3. In data set [2], the “Cytotox Efficacy” value is given as −77.66%, the “Cytotox Max Resp” value is on record as −66.67% and the “Cytotox CC-v2” value was −2.2.
